Target: T1, stearoyl-CoA desaturase (SCD) (Rattus norvegicus, UniProt P07308)
T1 construct: from tissue; host or cells: liver microsomes of male Sprague Dawley rats, with SCD induced by a carbohydrate-rich diet
T1 sequence (P07308 1-358): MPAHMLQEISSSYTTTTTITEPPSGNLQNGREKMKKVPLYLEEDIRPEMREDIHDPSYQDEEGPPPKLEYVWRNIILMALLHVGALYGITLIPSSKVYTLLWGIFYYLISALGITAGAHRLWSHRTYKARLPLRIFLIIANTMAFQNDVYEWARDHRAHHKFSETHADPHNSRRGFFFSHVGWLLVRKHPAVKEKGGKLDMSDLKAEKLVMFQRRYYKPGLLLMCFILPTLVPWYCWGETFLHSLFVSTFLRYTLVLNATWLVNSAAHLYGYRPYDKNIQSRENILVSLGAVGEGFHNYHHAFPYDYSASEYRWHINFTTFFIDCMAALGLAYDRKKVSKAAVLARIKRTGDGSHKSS
Test: SCD assay, rat liver microsomes with [3H]stearoyl CoA (adapted from Talamo and Bloch)
Type: biochemical
Conditions: second table, same SCD assay
Excerpt: The identification of compounds of the invention as SCD inhibitors was readily accomplished using the SCD enzyme and microsomal assay procedure described in Talamo and Bloch (1969) Analytical Biochemistry 29:300-304.
The rat liver microsomes were collected according to the procedure described in Ozols (1990) Methods Enzm, 182:225.
Male Spraque Dawley Rats were placed on regimented fasting protocol for one week to stimulate SCD enzymatic activity. 48-hour periods were alternated between feeding and fasting to induce and down-regulate SCD activity with SCD activity being induced via carbohydrate rich diet prior to liver perfusion and collection.
The rats were anesthetized with Isoflurane inhalation anesthetic, the liver perfused with cold phosphate buffered saline (PBS), weighed, and chilled in cold homogenization buffer (250 mM sucrose, 10 mM Tris, 1 mM EDTA, pH 7.6.
The livers were finely minced and placed in homogenization tube. 40 mL of homogenization buffer was added to the homogenization tube and the liver homogenized and centrifuged in a pre-chilled SLA-600 TC at 800G rotor for 10 min at 4° C.
Following centrifugation, the supernatant was collected and the pellet removed and discarded. This supernatant was then centrifuged at 10,000G for 35 minutes. Following centrifugation, the supernatant was collected and the pellet discarded. The supernatant was further centrifuged in a pre-chilled 45-Ti rotor at 130,000 G (41,000 RPM) for 90 minutes at 4° C.
The supernatant was then aspirated off and the collected microsomal pellet washed in 25 mL of Glycerol PBS (1×PBS 7.4, 20% Glycerol) and resuspended in 4-5 volumes of Glycerol PBS.
The protein concentration of the microsomal preparation was determined by BCA assay (Pierce) and the microsomes were aliquoted and stored at −80° C.
Biobeads were ground to a smaller size in a mortar and pestle and filtered through 300 μM mesh and then resuspended in 3.6% TCA.
SCD was determined in the desaturase assay buffer. This assay buffer contained 0.1 M Tris buffer, pH 7.2, 2 mM NADH, 4.8 mM ATP, 0.5 mM CoA, 4.8 mM MgCl2, and 0.1% BSA.
1 μl of each compound of Formula I was added to an assay plate by a low volume (0.5-10 μL) multichannel pipette. A DMSO control was also prepared. The microsomes were quickly thawed and added to assay buffer so that a concentration of 1-0.1 mg/ml was achieved (0.5-0.05 mg/ml assay final). 50 μl of the microsome suspension in assay buffer was then added into each well in the compound assay plate, the plate was covered, and the microsomes preincubated with the compounds for 30-60 minutes on the orbital shaker, 50-75 rpm, at room temperature.
After preincubation, the reaction was initiated by the addition of 50 μl of substrate solution (20 μM Stearoyl CoA, [3H]Stearoyl CoA, 74nCi) to the preincubated microsomes/compound suspensions in MilliQ (Millipore) H2O. The reaction mixtures were then incubated for 45 minutes on the orbital shaker at 50-75 rpm at room temperature.
The reaction was terminated by the addition of 10 μl of 21% trichloroacetic acid (TCA) to the reaction mixture followed incubation on the orbital shaker for 30 minutes at 50-75 rpm at room temperature followed by centrifugation for 5 minutes at 3700 rpm.
50 μl of a 6% Bio-Bead suspension in H2O was added to the reaction mixture and the assay plate was sealed. The Bio-Bead mixture was incubated on the orbital shaker for 1 to 24 hours, 100-150 rpm at room temperature, and then the mixture was centrifuged at 2000g for 5 minutes to pellet the Bio-Beads.
25 μl of the supernatant was harvested from each well and transferred to a detection plate. 100 μl of OptiPhase SuperMix scinitillation cocktail (containing sufficient NaOH to neutralize the TCA) was added and the solutions mixed by vigorous shaking (300-400 rpm) for 5 minutes at room temperature.

COc1ccc(-c2nc3cc(NC(=O)OCc4ccccc4)ccc3n(CCNC(C)=O)c2=O)cc1 [compound 46, benzyl 1-(2-acetamidoethyl)-3-(4-methoxyphenyl)-2-oxo-1,2-dihydroquinoxalin-6-ylcarbamate]
IC50: 20000 nM

Cc1nc2ccc(NCc3cccc(C(F)(F)F)c3)cc2n(CCNC(=O)CCO)c1=O [compound 49, 3-hydroxy-N-(2-(3-methyl-2-oxo-7-(3-(trifluoromethyl)benzylamino)quinoxalin-1(2H)-yl)ethyl)propanamide]
IC50: 1100 nM

Cc1nc2ccc(NCc3cccc(C(F)(F)F)c3)cc2n(CCC(=O)NCCO)c1=O [compound 50, N-(2-hydroxyethyl)-3-(3-methyl-2-oxo-7-(3-(trifluoromethyl)benzylamino)quinoxalin-1(2H)-yl)propanamide]
IC50: 230 nM

Cc1nc2ccc(NCc3cccc(C(F)(F)F)c3)cc2n(CCNC(N)=O)c1=O [compound 53, 1-(2-(3-methyl-2-oxo-7-(3-(trifluoromethyl)benzylamino)quinoxalin-1(2H)-yl)ethyl)urea]
IC50: 15 nM

COc1ccc(-c2nc3ccc(NCCc4cccc(Cl)c4)cc3n(CCNC(C)=O)c2=O)cc1 [compound 54, N-(2-(7-(3-chlorophenethylamino)-3-(4-methoxyphenyl)-2-oxoquinoxalin-1(2H)-yl)ethyl)acetamide]
IC50: 100 nM

COc1ccc(-c2nc3ccc(NCc4ccc(C)c(C)c4)cc3n(CCNC(C)=O)c2=O)cc1 [compound 57, N-(2-(7-(3,4-dimethylbenzylamino)-3-(4-methoxyphenyl)-2-oxoquinoxalin-1(2H)-yl)ethyl)acetamide]
IC50: 26 nM

COc1ccc(-c2nc3ccc(NCCc4ccc(Cl)cc4)cc3n(CCNC(C)=O)c2=O)cc1 [compound 58, N-(2-(7-(4-chlorophenethylamino)-3-(4-methoxyphenyl)-2-oxoquinoxalin-1(2H)-yl)ethyl)acetamide]
IC50: 82 nM

COc1ccc(-c2nc3ccc(NCc4ccc(Cl)c(C(F)(F)F)c4)cc3n(CCNC(C)=O)c2=O)cc1 [compound 62, N-(2-(7-(4-chloro-3-(trifluoromethyl)benzylamino)-3-(4-methoxyphenyl)-2-oxoquinoxalin-1(2H)-yl)ethyl)acetamide;]
IC50: 6 nM

COc1ccc(-c2nc3ccc(NCc4ccc(F)c(C)c4)cc3n(CCNC(C)=O)c2=O)cc1 [compound 63, N-(2-(7-(4-fluoro-3-methylbenzylamino)-3-(4-methoxyphenyl)-2-oxoquinoxalin-1(2H)-yl)ethyl)acetamide]
IC50: 5 nM

COc1ccc(-c2nc3ccc(NCc4cc(C(F)(F)F)ccn4)cc3n(CCNC(C)=O)c2=O)cc1 [compound 64, N-(2-(3-(4-methoxyphenyl)-2-oxo-7-((4-(trifluoromethyl)pyridin-2-yl)methylamino)quinoxalin-1(2H)-yl)ethyl)acetamide]
IC50: 39 nM

(R)-3-(2-(4-methoxyphenyl)-3-oxo-6-(3-(trifluoromethyl)benzylamino)pyrido[2,3-b]pyrazin-4(3H)-yl)butanamide [compound 22]
IC50: 67 nM

(S)-2-hydroxy-N-(2-(3-methyl-2-oxo-7-(3-(trifluoromethyl)benzylamino)quinoxalin-1(2H)-yl)ethyl)propanamide [compound 48]
IC50: 8000 nM

(S)-3-(2-(4-methoxyphenyl)-3-oxo-6-(3-(trifluoromethyl)benzylamino)pyrido[2,3-b]pyrazin-4(3H)-yl)butanamide [compound 39]
IC50: 19000 nM

(±)-2,3-dihydroxy-N-(2-(3-methyl-2-oxo-7-(3-(trifluoromethyl)benzylamino)-quinoxalin-1(2H)-yl)ethyl)-propanamide [compound 59]
IC50: 360 nM

N-(2-(3-(4-methoxyphenyl)-7-(3-methylbenzylamino)-2-oxoquinoxalin-1(2H)-yl)ethyl)acetamide [compound 56]
IC50: 18 nM

N-(2-(3-methyl-2-oxo-7-(3-(trifluoromethyl)benzylamino)quinoxalin-1(2H)-yl)ethyl)thiophene-3-carboxamide [compound 51]
IC50: 2.6 nM

N-(2-(3-oxo-6-(3-(trifluoromethyl)benzylamino)-2-(4-(trifluoromethyl)phenyl)pyrido[2,3-b]pyrazin-4(3H)-yl)ethyl)acetamide [compound 37]
IC50: 1300 nM

N-(2-(6-(2-chlorobenzylamino)-2-(4-methoxyphenyl)-3-oxopyrido[2,3-b]pyrazin-4(3H)-yl)ethyl)acetamide [compound 1]
IC50: 4100 nM

N-(2-(6-(3,4-dichlorobenzylamino)-2-(4-methoxyphenyl)-3-oxopyrido[2,3-b]pyrazin-4(3H)-yl)ethyl)-2-hydroxyacetamide [compound 34]
IC50: 120 nM

N-(2-(6-(3-methoxybenzylamino)-2-(4-methoxyphenyl)-3-oxopyrido[2,3-b]pyrazin-4(3H)-yl)ethyl)acetamide [compound 13]
IC50: 760 nM

N-(2-(7-(2-(2-chlorophenoxy)ethylamino)-3-(4-methoxyphenyl)-2-oxoquinoxalin-1(2H)-yl)ethyl)acetamide [compound 55]
IC50: 250 nM

benzyl 1-(2-acetamidoethyl)-3-(3,4-dichlorophenyl)-2-oxo-1,2-dihydroquinoxalin-6-ylcarbamate [compound 47]
IC50: 2300 nM
